Measurements: patent US7531570B2, “Treatment of diseases using ICE inhibitors” (Vertex Pharmaceuticals Incorporated, priority 2004, dated 2009)

Tests used:
patients with MWS = details: cited from earlier work
[1] = test system: LPS-stimulated IL-1β release from PBMCs of FCAS patients; experiment: LPS-stimulated IL-1β release from PBMCs of patients with FCAS; type: cell-based, human
Description: (§1) Inhibition by Compound 7 of LPS-Stimulated IL-1β and IL-18 Release from PBMCs of Patients with FCAS Compared with Healthy Controls.
(§2) FCAS patients from 3 families were studied along with healthy controls. The FCAS patients expressed 3 different CIAS1 gene mutations. […] (Neven B, Callebaut I, Prieur A M, Feldmann J, Bodemer C, Lepore L, Derfalvi B, Benjaponpitak S, Vesely R, Sauvain M J, Oertle S, Allen R, Morgan G, Borkhardt A, Hill C, Gardner-Medwin J. Fischer A, de Saint Basile G. Molecular basis of the spectral expression of CIAS1 mutations associated with phagocytic cell-mediated autoinflammatory disorders CINCA/NOMID, MWS, and FCU. Blood. 2004; 103(7): 2809-15).
(§3) Whole blood samples were collected from patients with FCAS and from healthy volunteer controls and cultured in vitro. The production of IL-1β was evaluated under normal, unstimulated conditions and in the presence of lipopolysaccharide at a range of concentrations from 10-10,000 ng/mL. Compound 7 was added to the cultures at concentrations of 30-30,000 nM to observe its ability to inhibit the production of IL-1β and IL-18 by cells from patients with FCAS or healthy volunteers. FIG. 1 illustrates the results of these experiments.
(§4) More specifically, in FIG. 1A, PBMCs from FCAS patients and normal controls were incubated with 10 ng/ml LPS in the presence of increasing concentrations of compound 7 (0.03-30 μM) for 24 hours. IL-1β in cell culture media was measured by ELISA and the results for each subject were normalized to the level of IL-1β release in the absence of compound 7. Results were reported in mean±SEM, for 3 FCAS patients and 5 control patients. LPS-stimulated IL-1β was inhibited by compound 7 with potency very similar to that of PBMCs from normal subjects (IC50 value˜1 μM).
FIG. 1B illustrates the release of IL-1β by PBMCs from FCAS patients or control subjects after exposure to LPS for 24 hours in the absence or presence of 10 μM compound 7. Results were reported in mean±SEM for 7 FCAS patients and 5 control patients. […]

[2] = test system: LPS-stimulated IL-1β release from PBMCs from normal subjects; experiment: LPS-stimulated IL-1β release from PBMCs of healthy controls; type: cell-based; details: Homo sapiens, PBMC, 10 ng/ml LPS, 24 hours, compound 0.03-30 μM, ELISA, FIG. 1A, read-out: IC50 for inhibition of LPS-stimulated IL-1β release
Experimental: as §1, §3, §4

[3] = test system: LPS-stimulated IL-18 release from PBMCs of FCAS patients; experiment: LPS-stimulated IL-18 release from PBMCs of patients with FCAS; type: cell-based, human
Description: as §1, §2, §3
FIG. 1C illustrates the release of IL-18 by PBMCs from FCAS patients or control subjects after 24 hrs exposure to LPS in the absence or presence of 10 μM compound 7. […]

[4] = test system: LPS-stimulated IL-1β release from PBMCs from MWS patients; experiment: LPS-stimulated IL-1β release from PBMCs from MWS patients; type: cell-based, human; details: PBMCs from 4 MWS patients, 10 ng/ml LPS, compound 0.03-10 μM, 24 hour, ELISA, FIG. 2
Experimental: Inhibition by Compound 7 of LPS-Stimulated IL-1β Release from PBMCs from 4 MWS Patients Incubated with 10 ng/ml LPS in the Presence of Increasing Concentrations of Compound 7 (0.03-10 μM) for 24 Hour.
as §3, with “with MWS” for “with FCAS and from healthy volunteer controls”, “of 30-10,000” for “of 30-30,000”, “IL-1β” for “IL-1β and IL-18”, “with MWS” for “with FCAS”, “FIG. 2” for “FIG. 1”
More specifically, in FIG. 2, IL-1β in cell culture media was measured by ELISA and the results for each subject were normalized to the level of IL-1β release in the absence of compound 7. Results were reported individually for each of the 4 MWS patients.

MWS patients = experiment: Open-label clinical trial: clinical response of 4 MWS patients to compound 7; type: in vivo, human
Experimental: Clinical Response of 4 MWS Patients to 900 mg Compound 7 Administered Orally Three Times Daily for 14 Days.
Four patients with MWS were enrolled into an open-label clinical trial to receive treatment with compound 7.
Compound 7 was administered orally at a dose of 900 mg 3 times daily for 14 days.
Specifically, in FIG. 3A, serum interleukin-18 (IL-18) was measured before (day −9 and day 0 (first point)), during (day 0 (second point), day 7 and day 14, (first point)) and after (day 14 (second point) and day 21) treatment with compound 7. On average, serum IL-18 levels were reduced by 55% at day 14. Data were reported in mean±SEM from 4 patients. Baseline levels of serum IL-18 were 170-370 pg /mL and were only slightly elevated relative to those typically observed in healthy control subjects.
In FIG. 3B, Serum amyloid A (SAA) and C-reactive protein (CRP) were measured before, during and after treatment with compound 7, and the amounts of SAA and CRP were reduced on average by 75% and 65%, respectively. Baseline levels of SAA were 150-650 mg/L and of CRP were 20-90 mg/L, both considerably elevated relative to healthy control subjects.
FIG. 3C illustrates that the self-reported patient total symptom scores were reduced on average by 60% during treatment. Individual symptoms (rash, fever/chills, arthralgia/myalgia, eye discomfort, fatigue) were rated daily by patients to be absent (O), minimal (1), mild (2), moderate (3) or severe (4) and the total score was calculated as the sum of individual symptom scores (range 0-20). Patients were experiencing mild-moderate symptoms at the beginning of treatment (scores 10-15), which were reduced to a minimal level (scores about 5) during treatment with compound 7.

[5] = 900 mg orally three times daily for 14 days, MWS patients, FIG. 3B

Molecule | Clinical inflammatory symptoms in patients with MWS (patients with MWS; daily injection) | Serum amyloid A in patients with MWS (patients with MWS; daily injection) | Urinary excretion of amyloid in patients with MWS (patients with MWS; daily injection) | Effectiveness in treating Muckle-Wells syndrome, Familial Cold Autoinflammatory Syndrome, Hyper-IgD syndrome and systemic onset Juvenile idiopathic Arthritis (patients with MWS; human, in vivo) | LPS-stimulated IL-1β release in presence of compound ([1]; 10 μM compound, LPS 24 hours, PBMCs from 7 FCAS patients vs 5 controls, FIG. 1B) | IC50 ([1]; Homo sapiens, PBMC, PBMCs from FCAS patients, 10 ng/ml LPS, 24 hours, compound 0.03-30 μM, ELISA, FIG. 1A, read-out: IC50 for inhibition of LPS-stimulated IL-1β release) [µM] | Potency of blocking IL-1β secretion, FCAS versus control subjects ([1]; LPS-stimulated cells, FIG. 1) | IC50 [2] [µM] | LPS-stimulated IL-18 release in presence of compound ([3]; 10 μM compound, LPS 24 hrs, PBMCs from 3 FCAS patients vs 3 controls, FIG. 1C) | Potency of blocking IL-18 secretion, FCAS versus control subjects ([3]; LPS-stimulated cells, FIG. 1) | Inhibition of LPS-stimulated IL-1β release, potency versus normal subjects [4] | Reduction of C-reactive protein (CRP) (average) (MWS patients; [5]) [%] | Reduction of serum amyloid A (SAA) (average) (MWS patients; [5]) [%] | Reduction of serum interleukin-18 (average) (MWS patients; 900 mg orally three times daily, at day 14, 4 MWS patients, FIG. 3A) [%] | Reduction of self-reported patient total symptom scores (average) (MWS patients; 900 mg orally three times daily, during treatment, MWS patients, FIG. 3C) [%] | Tolerability (MWS patients; four MWS patients, 14-day treatment period, 900 mg 3 times daily orally) | Total symptom score during treatment (MWS patients; sum of 5 symptom scores, range 0-20, scores 10-15 at beginning of treatment)
anakinra: recombinant human interleukin-1 receptor antagonist (rhuIL-1Ra, anakinra) | dramatic, rapid and sustained reduction | reduction of serum amyloid A | reduction | effective |  |  |  |  |  |  |  |  |  |  |  |  | 
CCO[C@@H]1OC(=O)C[C@@H]1NC(=O)[C@@H]1CCCN1C(=O)[C@@H](NC(=O)c1ccc(N)c(Cl)c1)C(C)(C)C [Compound 7] |  |  |  |  | inhibited | ~1 | equal potency | ~1 | inhibited | equal potency | potency similar to that of PBMCs from normal subjects | 65 | 75 | 55 | 60 | well tolerated | about 5
